Source: BigSolDB 2.1

O=C(O)[C@H]1O[C@@H](Oc2cc3oc(-c4ccccc4)cc(=O)c3c(O)c2O)[C@H](O)[C@@H](O)[C@@H]1O
solubility (mole fraction)
Conditions	278.15 K	283.15 K	288.15 K	293.15 K	298.15 K	303.15 K	308.15 K	313.15 K	318.15 K
in ethanol	0.000171	0.000176	0.000181	0.000186	0.000191	0.000196	0.000202	0.000205	0.000212
in isopropanol	0.000676	0.000855	0.00112	0.00145	0.00191	0.00246	0.00314	0.00392	0.00472
in methanol	8.11e-05	9.11e-05	0.000101	0.000113	0.000127	0.000143	0.000157	0.000171	0.000192
in n-propanol	0.000768	0.00101	0.00133	0.00171	0.00224	0.00289	0.00363	0.00451	0.00551
in water	2.38e-06	3.13e-06	4.35e-06	5.8e-06	7.49e-06	9.78e-06	1.27e-05	1.59e-05	2.03e-05
